Laboratory results from PubChem BioAssay (NCI).
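Five compound concentrations were applied to cells in 96-well plates for 48 hours; endpoints were derived by simple linear interpolation of the resulting dose-response curve. GI50 marks 50% less growth. TGI: concentration producing complete growth inhibition.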

Tests used:
Test in all cases: DTP human tumour cell line panel, 48 h
[1] = system: HCT-116 colon
[2] = system: IGROV1 ovarian
[3] = system: CAKI-1 renal
[4] = system: NCI-H522 lung
[5] = system: HCT-15 colon
[6] = system: DU-145 prostate
[7] = system: A549 NSCLC
[8] = system: SR leukemia
[9] = system: SNB-19 CNS
[10] = system: U251 CNS
[11] = system: EKVX NSCLC
[12] = system: SK-MEL-5 melanoma
[13] = system: OVCAR-3 ovarian
[14] = system: K-562 leukemia
[15] = system: SF-295 CNS
[16] = system: RPMI-8226 leukemia
[17] = system: MDA-MB-435
[18] = system: HOP-92 NSCLC
[19] = system: SW-620 colon
[20] = system: ACHN renal
[21] = system: LOX IMVI melanoma
[22] = system: OVCAR-8 ovarian
[23] = system: 786-0 renal
[24] = system: NCI/ADR-RES ovarian
[25] = system: PC-3 prostate
[26] = system: OVCAR-5 ovarian
[27] = system: NCI-H460 lung
[28] = system: MCF7 breast
[29] = system: UACC-62 melanoma
[30] = system: OVCAR-4 ovarian
[31] = system: HOP-62 NSCLC
[32] = system: HCC-2998 colon
[33] = system: MOLT-4 leukemia
[34] = system: T-47D breast
[35] = system: SN12C renal
[36] = system: MALME-3M melanoma
[37] = system: M14 melanoma
[38] = system: HT29 colon
[39] = system: SK-MEL-2 melanoma
[40] = system: KM12 colon
[41] = system: COLO 205 colon
[42] = system: HS 578T breast
[43] = system: RXF 393 renal
[44] = system: SK-MEL-28 melanoma
[45] = system: UO-31 renal
[46] = system: SF-539 CNS
[47] = system: NCI-H226 lung
[48] = system: SNB-75 CNS
[49] = system: A498 renal
[50] = system: TK-10 renal
[51] = system: BT-549 breast
[52] = system: CCRF-CEM leukemia
[53] = system: UACC-257 melanoma
[54] = system: NCI-H23 lung
[55] = system: MDA-MB-231 breast
[56] = system: SF-268 CNS
[57] = system: HL-60(TB) leukemia

CC(C)(C)C(=O)OCOP(=O)(NCc1ccccc1)C1CCCN(O)C1=O (centres undefined)
GI50 [1]: 2.84 µM
TGI [1]: 14.4 µM
GI50 [2]: 2.91 µM
TGI [2]: 9.59 µM
GI50 [3]: 3.5 µM
TGI [3]: > 100 µM
GI50 [4]: 1.78 µM
TGI [4]: 21.9 µM
GI50 [5]: 2.75 µM
TGI [5]: 25.9 µM
GI50 [6]: 4.03 µM
TGI [6]: > 100 µM
GI50 [7]: 2.79 µM
TGI [7]: > 100 µM
GI50 [8]: 0.985 µM
TGI [8]: > 100 µM
GI50 [9]: 3.12 µM
TGI [9]: 24.9 µM
GI50 [10]: 2.45 µM
TGI [10]: > 100 µM
GI50 [11]: 3.91 µM
TGI [11]: 78.8 µM
GI50 [12]: 1.76 µM
TGI [12]: 4.33 µM
GI50 [13]: 1.04 µM
TGI [13]: 9 µM
GI50 [14]: 1.13 µM
TGI [14]: > 100 µM
GI50 [15]: 3.23 µM
TGI [15]: 29.5 µM
GI50 [16]: 2.25 µM
TGI [16]: 7.28 µM
GI50 [17]: 4.09 µM
TGI [17]: 71.9 µM
GI50 [18]: 1.06 µM
TGI [18]: 7.72 µM
GI50 [19]: 2.87 µM
TGI [19]: > 100 µM
GI50 [20]: 2.5 µM
TGI [20]: 67.4 µM
GI50 [21]: 2.85 µM
TGI [21]: 15.8 µM
GI50 [22]: 1.17 µM
TGI [22]: > 100 µM
GI50 [23]: 3.15 µM
TGI [23]: > 100 µM
GI50 [24]: 2.03 µM
TGI [24]: 6.65 µM
GI50 [25]: 5.08 µM
TGI [25]: > 100 µM
GI50 [26]: 8.99 µM
TGI [26]: > 100 µM
GI50 [27]: 1.75 µM
TGI [27]: 15.5 µM
GI50 [28]: 2.41 µM
TGI [28]: 11.1 µM
GI50 [29]: 2.22 µM
TGI [29]: 6.49 µM
GI50 [30]: 2.1 µM
TGI [30]: 71.9 µM
GI50 [31]: 2.55 µM
TGI [31]: 32.8 µM
GI50 [32]: 2.37 µM
TGI [32]: 12 µM
GI50 [33]: 2.61 µM
TGI [33]: 14.4 µM
GI50 [34]: 1.98 µM
TGI [34]: 57.6 µM
GI50 [35]: 0.752 µM
TGI [35]: 9.21 µM
GI50 [36]: 1 µM
TGI [36]: 6.96 µM
GI50 [37]: 2.91 µM
TGI [37]: 18.7 µM
GI50 [38]: 3.35 µM
TGI [38]: 61.9 µM
GI50 [39]: 2.85 µM
TGI [39]: 15.6 µM
GI50 [40]: 1.13 µM
TGI [40]: 3.56 µM
GI50 [41]: 2.47 µM
TGI [41]: 13.7 µM
GI50 [42]: 1.28 µM
TGI [42]: 6.64 µM
GI50 [43]: 1.76 µM
TGI [43]: 6.48 µM
GI50 [44]: 1.74 µM
TGI [44]: 5.68 µM
GI50 [45]: 0.349 µM
TGI [45]: 2.99 µM
GI50 [46]: 3.2 µM
TGI [46]: 16.5 µM
GI50 [47]: 0.462 µM
TGI [47]: 3.43 µM
GI50 [48]: 4.97 µM
TGI [48]: 39.1 µM
GI50 [49]: 0.692 µM
TGI [49]: 9.18 µM
GI50 [50]: 3.12 µM
TGI [50]: 43.2 µM
GI50 [51]: 5.81 µM
TGI [51]: 53.4 µM
GI50 [52]: 0.558 µM
TGI [52]: > 100 µM
GI50 [53]: 5.11 µM
TGI [53]: 55.4 µM
GI50 [54]: 2.77 µM
TGI [54]: 13.4 µM
GI50 [55]: 2.3 µM
TGI [55]: 19.9 µM
GI50 [56]: 2.09 µM
TGI [56]: > 100 µM
GI50 [57]: 3.59 µM
TGI [57]: 13.7 µM
